Calls of active or inactive are those of the source. The rule behind the calls is not given here.
Columns and labels:
MCF7 [1] = assay: Growth promoting activity in human MCF7 cells after 7 days by colorimetric methylene blue assay in presence of Toremifene; format: functional, cell-based
MCF7 [2] = assay: Growth promoting activity in human MCF7 cells at >10 nM after 7 days by colorimetric methylene blue assay in presence of Toremifene; format: functional, cell-based

CC1(C)[C@@H]2C[C@]3(O)CC(=O)[C@@H](C4=COc5cc(O)ccc5[C@H]41)[C@@H]2[C@H]3O
Activity (MCF7 [1]): Active | Activity (MCF7 [2]): Active

CC1(C)[C@@H]2C[C@]3(O)CC(=O)[C@@](O)(C4=COc5cc(O)ccc5[C@H]41)[C@@H]2[C@H]3O
Activity (MCF7 [1]): Active | Activity (MCF7 [2]): Active

From ChEMBL document CHEMBL1155670, “Identification of deoxymiroestrol as the actual rejuvenating principle of "Kwao Keur", Pueraria mirifica. The known miroestrol may be an artifact” (J Nat Prod, 2000)
